Data taken from US11858905B1, “Cathepsin L inhibitors” (priority 2023, dated 2024).
Like-named read-outs stand apart in the source and are kept apart here.

Experiments:
human CatL = human CatL (Homo sapiens (Human), UniProt P07711); experiment: Human Cathepsin L (CatL) enzymatic assay; type: biochemical
Experimental: Human Cathepsin L (CatL) Enzymatic Assay
60 μL of the compounds were added to 384-well dilution plate. The compound solution was diluted for 1:3 in succession in DMSO for each column for 10 pts. 0.05 μL diluted compound solution was added in each row to 384 assay plates (Corning 4514) using Echo (LABCYTE 655), each column containing 2 replicates. 5 μL working solution of human CatL enzyme (Abcam #ab81780) was added to 384-well assay plate, centrifuge 1000 rpm for 1 min. The mixture was incubated at […] for 15 min, then add 5 μL working solution of CatL substrate (Genscript #C7360HB140_5) to initiate the reaction (CatL: 0.05 nM, Substrate: 500 nM). Incubate at […] for 30 min. Reading Ex370 nm and Em460 nm fluorescence signals with BMG CLARIO Star Plusaucu. Percent inhibition for each compound was calculated and IC50 (half maximal inhibitory concentration) was fitted from non-linear regression by XLfit 5.5.0.

SARS-CoV-2 PsVs = experiment: microbe, parasite or virus in culture; type: cell-based; details: Severe acute respiratory syndrome coronavirus 2, Vero C1008, 24 h; for activity at 0.5 µM: read-out: % Infection rate at 500 nM; for activity at 5 µM: read-out: % Infection rate at 5 uM
[1] = CatL 0.05 nM, substrate 500 nM, pH 5.5, read-out: Enzymatic inhibition IC50
[2] = summary of Table 2, read-out: IC50 for inhibiting CatL

Sequence of human CatL (P07711 whole entry, looked up): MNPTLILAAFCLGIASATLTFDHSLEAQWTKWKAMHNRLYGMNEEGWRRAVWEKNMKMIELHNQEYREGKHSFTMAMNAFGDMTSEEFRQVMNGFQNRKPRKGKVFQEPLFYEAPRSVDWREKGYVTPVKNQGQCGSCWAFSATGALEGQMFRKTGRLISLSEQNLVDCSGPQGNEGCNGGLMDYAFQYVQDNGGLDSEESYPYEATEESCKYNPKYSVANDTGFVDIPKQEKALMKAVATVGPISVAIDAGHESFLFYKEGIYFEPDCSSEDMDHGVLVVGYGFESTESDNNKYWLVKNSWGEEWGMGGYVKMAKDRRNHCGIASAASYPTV

N#CC1(NC(=O)[C@H](Cc2nc3ccccc3o2)NC(=O)c2cccc(Cl)c2)CC1 [Compound 1, (S)—N-(3-(benzo[d]oxazol-2-yl)-1-((1-cyanocyclopropyl)amino)-1-oxopropan-2-yl)-3-chlorobenzamide]
IC50 (human CatL; [1]): 14.1 nM | activity at 0.5 µM (SARS-CoV-2 PsVs): 69% | activity at 5 µM (SARS-CoV-2 PsVs): 39%

N#CC1(NC(=O)[C@H](Cc2nc3c(Br)cccc3o2)NC(=O)c2cccc(Cl)c2)CC1 [Compound 2, (S)—N-(3-(4-bromobenzo[d]oxazol-2-yl)-1-((1-cyanocyclopropyl)amino)-1-oxopropan-2-yl)-3-chlorobenzamide]
IC50 (human CatL; [1]): 7.5 nM | IC50 (human CatL; [2]): < 10 nM | activity at 0.5 µM (SARS-CoV-2 PsVs): 55% | activity at 5 µM (SARS-CoV-2 PsVs): 12%

N#CC1(NC(=O)[C@H](Cc2nc3cccc(Br)c3o2)NC(=O)c2cccc(Cl)c2)CC1 [Compound 3, (S)—N-(3-(7-bromobenzo[d]oxazol-2-yl)-1-((1-cyanocyclopropyl)amino)-1-oxopropan-2-yl)-3-chlorobenzamide]
IC50 (human CatL; [1]): 5.9 nM | IC50 (human CatL; [2]): < 10 nM | activity at 0.5 µM (SARS-CoV-2 PsVs): 65% | activity at 5 µM (SARS-CoV-2 PsVs): 10%

N#CC1(NC(=O)[C@H](Cc2nc3ccc(F)cc3o2)NC(=O)c2cccc(Cl)c2)CC1 [Compound 4, (S)-3-chloro-N-(1-((1-cyanocyclopropyl)amino)-3-(6-fluorobenzo[d]oxazol-2-yl)-1-oxopropan-2-yl)benzamide]
IC50 (human CatL; [1]): 34.9 nM | activity at 0.5 µM (SARS-CoV-2 PsVs): 81% | activity at 5 µM (SARS-CoV-2 PsVs): 51%

N#Cc1cccc2nc(C[C@H](NC(=O)c3cccc(Cl)c3)C(=O)NC3(C#N)CC3)oc12 [Compound 5, (S)-3-chloro-N-(3-(7-cyanobenzo[d]oxazol-2-yl)-1-((1-cyanocyclopropyl)amino)-1-oxopropan-2-yl)benzamide]
IC50 (human CatL; [1]): 122 nM | activity at 0.5 µM (SARS-CoV-2 PsVs): 91% | activity at 5 µM (SARS-CoV-2 PsVs): 81%

N#CC1(NC(=O)[C@H](Cc2nc3cccc(Cl)c3o2)NC(=O)c2cccc(Cl)c2)CC1 [Compound 6, (S)-3-chloro-N-(3-(7-chlorobenzo[d]oxazol-2-yl)-1-((1-cyanocyclopropyl)amino)-1-oxopropan-2-yl)benzamide]
IC50 (human CatL; [1]): 7 nM | IC50 (human CatL; [2]): < 10 nM | activity at 0.5 µM (SARS-CoV-2 PsVs): 75% | activity at 5 µM (SARS-CoV-2 PsVs): 20%

N#CC1(NC(=O)[C@H](Cc2nc3c(Cl)cccc3o2)NC(=O)c2cccc(Cl)c2)CC1 [Compound 7, (S)-3-chloro-N-(3-(4-chlorobenzo[d]oxazol-2-yl)-1-((1-cyanocyclopropyl)amino)-1-oxopropan-2-yl)benzamide]
IC50 (human CatL; [1]): 21.1 nM | activity at 0.5 µM (SARS-CoV-2 PsVs): 96% | activity at 5 µM (SARS-CoV-2 PsVs): 48%

N#CC1(NC(=O)[C@H](Cc2nc3cc(Cl)ccc3o2)NC(=O)c2cccc(Cl)c2)CC1 [Compound 8, (S)-3-chloro-N-(3-(5-chlorobenzo[d]oxazol-2-yl)-1-((1-cyanocyclopropyl)amino)-1-oxopropan-2-yl)benzamide]
IC50 (human CatL; [1]): 17.4 nM | activity at 0.5 µM (SARS-CoV-2 PsVs): 92% | activity at 5 µM (SARS-CoV-2 PsVs): 69%

N#CC1(NC(=O)[C@H](Cc2nc3ccc(Cl)cc3o2)NC(=O)c2cccc(Cl)c2)CC1 [Compound 9, (S)-3-chloro-N-(3-(6-chlorobenzo[d]oxazol-2-yl)-1-((1-cyanocyclopropyl)amino)-1-oxopropan-2-yl)benzamide]
IC50 (human CatL; [1]): 30.5 nM | activity at 0.5 µM (SARS-CoV-2 PsVs): 97% | activity at 5 µM (SARS-CoV-2 PsVs): 73%

N#CC1(NC(=O)[C@H](Cc2nc3cc(C(F)(F)F)ccc3o2)NC(=O)c2cccc(Cl)c2)CC1 [Compound 10, (S)-3-chloro-N-(1-((1-cyanocyclopropyl)amino)-1-oxo-3-(5-(trifluoromethyl)benzo[d]oxazol-2-yl)propan-2-yl)benzamide]
IC50 (human CatL; [1]): 51.5 nM | activity at 0.5 µM (SARS-CoV-2 PsVs): 97% | activity at 5 µM (SARS-CoV-2 PsVs): 96%

N#CC1(NC(=O)[C@H](Cc2nc3ccc(C(F)(F)F)cc3o2)NC(=O)c2cccc(Cl)c2)CC1 [Compound 11, (S)-3-chloro-N-(1-((1-cyanocyclopropyl)amino)-1-oxo-3-(6-(trifluoromethyl)benzo[d]oxazol-2-yl)propan-2-yl)benzamide]
IC50 (human CatL; [1]): 94.6 nM | activity at 0.5 µM (SARS-CoV-2 PsVs): 86% | activity at 5 µM (SARS-CoV-2 PsVs): 81%

N#CC1(NC(=O)[C@H](Cc2nc3cccc(C(F)(F)F)c3o2)NC(=O)c2cccc(Cl)c2)CC1 [Compound 12, (S)-3-chloro-N-(1-((1-cyanocyclopropyl)amino)-1-oxo-3-(7-(trifluoromethyl)benzo[d]oxazol-2-yl)propan-2-yl)benzamide]
IC50 (human CatL; [1]): 235 nM

Cn1nc(C(C)(C)C)cc1C(=O)N[C@@H](Cc1nc2ccccc2o1)C(=O)NC1(C#N)CC1 [Compound 13, (S)—N-(3-(benzo[d]oxazol-2-yl)-1-((1-cyanocyclopropyl)amino)-1-oxopropan-2-yl)-3-(tert-butyl)-1-methyl-1H-pyrazole-5-carboxamide]
IC50 (human CatL; [1]): 3.9 nM | IC50 (human CatL; [2]): < 10 nM | activity at 0.5 µM (SARS-CoV-2 PsVs): 55% | activity at 5 µM (SARS-CoV-2 PsVs): 10%

Cc1cccc(C(=O)N[C@@H](Cc2nc3ccccc3o2)C(=O)NC2(C#N)CC2)n1 [Compound 14, (S)—N-(3-(benzo[d]oxazol-2-yl)-1-((1-cyanocyclopropyl)amino)-1-oxopropan-2-yl)-6-methylpicolinamide]
IC50 (human CatL; [1]): 534 nM | activity at 0.5 µM (SARS-CoV-2 PsVs): 103% | activity at 5 µM (SARS-CoV-2 PsVs): 97%

N#CCNC(=O)[C@H](Cc1nc2ccccc2o1)NC(=O)c1cc(C2CC2)nn1C1CC1 [Compound 15, (S)—N-(3-(benzo[d]oxazol-2-yl)-1-((cyanomethyl)amino)-1-oxopropan-2-yl)-1,3-dicyclopropyl-1H-pyrazole-5-carboxamide]
IC50 (human CatL; [1]): 19.4 nM | IC50 (human CatL; [2]): < 50 nM | activity at 0.5 µM (SARS-CoV-2 PsVs): 79% | activity at 5 µM (SARS-CoV-2 PsVs): 20%

Cc1nn(C2CC2)cc1C(=O)N[C@@H](Cc1nc2ccccc2o1)C(=O)NC1(C#N)CC1 [Compound 16, (S)—N-(3-(benzo[d]oxazol-2-yl)-1-((1-cyanocyclopropyl)amino)-1-oxopropan-2-yl)-1-cyclopropyl-3-methyl-1H-pyrazole-4-carboxamide]
IC50 (human CatL; [1]): 139 nM

Cc1nn(C2CC2)cc1C(=O)N[C@@H](Cc1nc2cc(F)c(F)cc2o1)C(=O)NC1(C#N)CC1 [Compound 17, (S)—N-(1-((1-cyanocyclopropyl)amino)-3-(5,6-difluorobenzo[d]oxazol-2-yl)-1-oxopropan-2-yl)-1-cyclopropyl-3-methyl-1H-pyrazole-4-carboxamide]
IC50 (human CatL; [1]): 201 nM

N#CC1(NC(=O)[C@H](Cc2nc3ccccc3o2)NC(=O)c2cn(C3CC3)nc2C(F)(F)F)CC1 [Compound 18, (S)—N-(3-(benzo[d]oxazol-2-yl)-1-((1-cyanocyclopropyl)amino)-1-oxopropan-2-yl)-1-cyclopropyl-3-(trifluoromethyl)-1H-pyrazole-4-carboxamide]
IC50 (human CatL; [1]): 50.7 nM | activity at 0.5 µM (SARS-CoV-2 PsVs): 92% | activity at 5 µM (SARS-CoV-2 PsVs): 72.6%

N#CC1(NC(=O)[C@H](Cc2nc3ccccc3o2)NC(=O)c2cn(C3CC3)nc2C(F)F)CC1 [Compound 19, (S)—N-(3-(benzo[d]oxazol-2-yl)-1-((1-cyanocyclopropyl)amino)-1-oxopropan-2-yl)-1-cyclopropyl-3-(difluoromethyl)-1 H-pyrazole-4-carboxamide]
IC50 (human CatL; [1]): 44.6 nM | activity at 0.5 µM (SARS-CoV-2 PsVs): 101% | activity at 5 µM (SARS-CoV-2 PsVs): 77.3%

CC(C)(C)c1cc(C(=O)N[C@@H](Cc2nc3cccc(Cl)c3o2)C(=O)NC2(C#N)CC2)n(C2CC2)n1 [Compound 20, (S)-3-(tert-butyl)-N-(3-(7-chlorobenzo[d]oxazol-2-yl)-1-((1-cyanocyclopropyl)amino)-1-oxopropan-2-yl)-1-cyclopropyl-1H-pyrazole-5-carboxamide]
IC50 (human CatL; [1]): 4.2 nM | activity at 0.5 µM (SARS-CoV-2 PsVs): 40% | activity at 5 µM (SARS-CoV-2 PsVs): 6.3%
